Measurements reported in patent US9808443B1, “Cyclooxygenase inhibitors” (KING SAUD UNIVERSITY, priority 2016, dated 2017).

Legend:
[1] = system: carrageenan-induced rat paw edema; test: carrageenan-induced rat paw edema method (anti-inflammatory activity); assay type: in vivo; conditions: for anti-inflammatory activity (in words): compared with standard drug indomethacin; for anti-inflammatory activity, % inhibition of paw edema: equimolar oral dose, rat
Procedure: For the experimental results described below, healthy male albino rats (200 g-220 g) were used for the study. The animals were kept in standard plastic animal cages in groups of six animals each with 12 hour light and dark cycle at 25±2° C. The rats were fed on standard rat chow and provided water ad libitum. The animals were acclimatized to laboratory conditions for a week prior to experiments. Anti-inflammatory activity of the synthesized compounds S1-S18 was determined by the carrageenan-induced rat paw edema method. The compounds were tested at equimolar oral dose and were compared with the standard drug indomethacin. […]. Three compounds, namely S14, S7 and S3 containing R=2,4,5-trimethoxyphenyl; […].
Anti-inflammatory activity was determined by a carrageenan-induced rat paw edema method. Male rats weighing 200 g were housed in a room with a controlled temperature and 12 hour light/12 hour dark cycle, housed in a specific pathogen free environment, and fed standard rodent chow and given water ad libitum. Each treatment group and vehicle group consisted of six randomly assigned animals. Compounds were administered p.o. suspension. Paw edema was induced by intradermal injection of 50 μL of 1% carrageenan into the sub plantar region of the right hind paw, after one hour of compound administration. […] The control group received only the vehicle. Increase in paw edema was compared with that in the control group and percent inhibition was calculated taking the values in the control group as 0% inhibition.

[2] = system: nociceptive response on hot plate; test: hot plate test (analgesic activity); assay type: in vivo; design: concentration or dose not given beside the values; conditions: hot plate 58° C.; mice; 120 min after injection
Procedure: Male albino Swiss mice (25 g body weight) were divided into various groups (n=6). Each mouse was initially placed on a hot plate thermostatically maintained at 58° C. […] This time was considered as the control reaction time. A cut-off time of 60 s was used to avoid damage to the paws. To test the analgesic activity of the compounds, each group of mice was treated with one dose of the test compounds. The reaction time was then retested at 0 hour and 120 min after injection (each animal acted as its own control). The percentage changes in the reaction were then calculated.

[3] = LD50 determination by the Karber method; conditions: in vivo, mouse, 24 hours observation
Procedure: The LD50 of compound S3 was determined by the Karber method. […] For LD50 determination, an observation was made for each mouse for 24 hours and symptoms of toxicity and rate of mortality in each group were noted. At the end of the study period, expired animals were counted for the calculation of LD50. The following method was used for the determination of LD50: LD50=LD100−Σ×(a×b)/n, where n is the total number of animals in a group, a is the difference between two successive doses of administered extract/substance, b is the average number of dead animals in two successive doses, and LD100 is the lethal dose causing 100% death of all test animals.

[4] = system: ethanol-induced gastric ulcer; test: ethanol induced ulcer model (gastro-protective activity: ulcer index, mucus, PAS staining, histology); assay type: in vivo, rat; conditions: for histology of gastric tissue (in words): S3 25.6 mg/kg, indomethacin 25 mg/kg; for Ulcer index Mean ± SEM: pretreatment orally (S3 25.6 mg/kg, indomethacin 25 mg/kg) 1 hour before ethanol 95% 20 mL/kg, rats
Description: Gastric mucus plays crucial role in gastro-protection. […] The mucus was formed from mucin-type glycoprotein. The mucus gel adhering to the gastric mucosal surface defends the epithelium beneath against acid, pepsin and necrotizing agents, such as ethanol and indomethacin. […] Gastric wall mucus coating might be relieved in the repair of the damaged gastric epithelium. […] The rats were grouped into five groups (n=6). Group I and II received saline solution and served as negative-control and ulcer-control, respectively. […] The animals were sacrificed 1 hour later under anesthesia and their stomachs were quickly removed for further studies. Periodic acid-Schiff (PAS) staining was used to observe the glycogen level in control and pretreated animals. […] Ethanol-induced gastric ulcers result from several mechanisms, including reduction of gastric mucus and impaired mucosal permeability, and leads to increased leakage of hydrogen ions from the lumen and decreased transluminal membrane potential difference. With regard to the gross gastric lesion evaluation, the stomach of each rat was opened along the greater arc and washed with saline water to remove gastric contents. Gastric ulcers appear as elongated bands on the gastric mucosa with hemorrhagic lesions being parallel to the long axis of the stomach. The mucosa was assessed for damage under dissecting microscope (1.8×) and a planimeter was used to measure the ulcers area (hemorrhagic lesions). The length and width of each lesion were measured and the sum of the area of all lesions for each stomach was expressed as the ulcer area (mm^2). To determine mucus production of the gastric mucosa, the gastric mucosa of each rat was gently scraped using a glass slide and the mucus obtained was weighed using a precision electronic balance. For the histologic studies, gastric tissues were collected and fixed in 10% formalin after sacrifice. Then, each sample was embedded in paraffin and cut into 5 μm thick slices for morphological and pathological evaluation. Tissue sections were stained with hematoxylin and eosin (H & E) and examined under a light microscope.

COX-1 = test: Western blot of COX-1 expression in rat gastric mucosa damaged by ethanol; assay type: in vivo; conditions: ethanol induced model, S3 25.6 mg/kg, indomethacin 25 mg/kg
gastric mucosa = conditions: rat, in vivo
Procedure: For acute ulcerogenesis testing, albino rats were divided into different groups consisting of six animals in each group. […] Control rats received p.o. administration of vehicle (suspension of 1% methyl cellulose). Food (but not water) was removed 24 hours before administration of the test compounds. After the drug treatment, the rats were fed a normal diet for 17 hours and then sacrificed. The stomach was removed and opened along the greater curvature, washed with distilled water and cleaned gently by dipping in saline. The mucosal damage was examined by means of a magnifying glass. For each stomach, the mucosal damage was assessed according to the following scoring system: 0.5 redness; 1.0 spot ulcers; 1.5 hemorrhagic streaks; 2.0 ulcers <3 but ≦5; 3.0 ulcers >5. All of the compounds were tested at equimolar oral doses.

[5] = system: malondialdehyde (MDA) content; conditions: rat, in vivo
Procedure: The mixture was heated at 95° C. for 60 minutes. After cooling, the reactants were supplemented with 5 mL of a mixture of n-butanol:pyridine (15:1 v/v), shaken vigorously for 1 minute and centrifuged for 10 minutes at 4000 rpm. The supernatant organic layer was taken out and absorbance was measured at 532 nm on a UV spectrophotometer. The results were expressed as nmol MDA/100 mg tissue. Data are expressed as mean±S.E.M., and the student's t-test was applied to determine the significance of the difference between the standard group and rats treated with the test compounds. The lipid peroxidation was measured as nanomoles of MDA content/100 mg of liver and kidney tissue.

COX-2 = test: Western blot of COX-2 expression in rat gastric mucosa damaged by ethanol; conditions: ethanol induced model, S3 25.6 mg/kg, indomethacin 25 mg/kg
Procedure: A Western blot was performed for COX-1. […] For the Western blot analysis, 20 μg of protein was transferred to PVDF membranes, blocked in 5% skim milk in TBS buffer 1% Tween 20, and then incubated overnight with the COX-1, COX-2 and β-actin, followed by HRP-conjugated anti-rat/rabbit/goat antibodies for 2 hours at 25° C. Bands were visualized with the Luminata Western Chemiluminescent HRP Substrates and densitometric analysis of bands were assessed using LI-COR C-DiGit blot scanners.

[6] = pretreated rats, ethanol induced ulcer

Structure (SMILES): COc1ccc2[nH]c(C)c(CC(=O)N/N=C/c3cccc([N+](=O)[O-])c3)c2c1 [Compound S3, 2-(5-methoxy-2-methyl-1H-indol-3-yl)-N′-[(E)-(3-nitrophenyl)methylidene] acetohydrazide]
- anti-inflammatory activity (in words) [1]: most potent compounds with significant anti-inflammatory activity
- analgesic activity (percentage change in reaction time) [2]: 61.36%
- LD50 at 24 h [3]: 35 mg/kg
- histology of gastric tissue (in words) ([4]; ethanol induced ulcer): normal glandular pattern with mild inflammation and infiltration of leucocytes
- PAS staining of gastric mucosa (in words) [4, 6]: substantially continuous PAS-positive mucous gel layer
- mucus production by gastric mucosa (in words) [4, 6]: increased gradually
- Ulcer index Mean ± SEM [4]: 2.83±0.87 mm^2
- COX-1 expression / inhibition by Western blot (in words) (COX-1): weak COX-1 expression
- ulcerogenic activity (in words) (gastric mucosa): less ulcerogenic than the reference drug indomethacin
- lipid peroxidation (in words) [5]: maximum reduction in gastric ulceration and lipid peroxidation
- COX-2 expression / inhibition by Western blot (in words) (COX-2): potent COX-2 inhibition

Structure (SMILES): COc1ccc2[nH]c(C)c(CC(=O)N/N=C/c3ccccc3[N+](=O)[O-])c2c1 [Compound S4, 2-(5-methoxy-2-methyl-1H-indol-3-yl)-N′-[(E)-(2-nitrophenyl)methylidene] acetohydrazide]
- melting point: 210 to 212 °C

Structure (SMILES): COc1ccc2[nH]c(C)c(CC(=O)N/N=C/c3ccc(Cl)cc3)c2c1 [Compound S5, N′-[(E)-(4-chlorophenyl)methylidene]-2-(5-methoxy-2-methyl-1H-indol-3-yl)acetohydrazide]
- melting point: 180 to 182 °C

Structure (SMILES): COc1ccc2[nH]c(C)c(CC(=O)N/N=C/c3ccc(Cl)cc3Cl)c2c1 [Compound S6, N′-[(E)-(2,4-dichlorophenyl)methylidene]-2-(5-methoxy-2-methyl-1H-indol-3-yl)acetohydrazide]
- melting point: 238 to 240 °C

Structure (SMILES): COc1ccc2[nH]c(C)c(CC(=O)N/N=C/c3ccc(OC)c(OC)c3)c2c1 [Compound S7, 2-(5-methoxy-2-methyl-1H-indol-3-yl)-N′-[(E)-(3,4-dimethoxyphenyl)methylidene] acetohydrazide]
- anti-inflammatory activity (in words) [1]: most potent compounds with significant anti-inflammatory activity
- analgesic activity (percentage change in reaction time) [2]: 47.72%
- melting point: 210 to 212 °C
- ulcerogenic activity (in words) (gastric mucosa): less ulcerogenic than the reference drug indomethacin

Structure (SMILES): COc1ccc2[nH]c(C)c(CC(=O)N/N=C/c3ccccc3OC)c2c1 [Compound S8, 2-(5-methoxy-2-methyl-1H-indol-3-yl)-N′-[(E)-(2-methoxyphenyl)methylidene] acetohydrazide]
- melting point: 220 to 222 °C

Structure (SMILES): COc1ccc2[nH]c(C)c(CC(=O)N/N=C/c3ccc(O)cc3)c2c1 [Compound S9, N-[(E)-(4-hydroxyphenyl)methylidene]-2-(5-methoxy-2-methyl-1H-indol-3-yl)acetohydrazide]
- analgesic activity (percentage change in reaction time) [2]: 55.81%

Structure (SMILES): COc1ccc2[nH]c(C)c(CC(=O)N/N=C/c3cccc(O)c3)c2c1 [Compound S10, N′-[(E)-(3-hydroxyphenyl)methylidene]-2-(5-methoxy-2-methyl-1H-indol-3-yl)acetohydrazide]
- analgesic activity (percentage change in reaction time) [2]: 62.50%
- melting point: 145 to 147 °C

Structure (SMILES): COc1ccc2[nH]c(C)c(CC(=O)N/N=C/c3ccc(N(C)C)cc3)c2c1 [Compound S11, 2-(5-methoxy-2-methyl-1H-indol-3-yl)-N′-{(E)-[4-(dimethylamino)phenyl]methylidene}acetohydrazide]
- melting point: 200 to 202 °C

Structure (SMILES): COc1cccc(/C=N/NC(=O)Cc2c(C)[nH]c3ccc(OC)cc23)c1 [Compound S12, 2-(5-methoxy-2-methyl-1H-indol-3-yl)-N′-[(E)-(3-methoxyphenyl)methylidene] acetohydrazide]
- melting point: 195 to 197 °C

Structure (SMILES): CCOc1ccc(/C=N/NC(=O)Cc2c(C)[nH]c3ccc(OC)cc23)cc1 [Compound S13, N′-[(E)-(4-ethoxyphenyl)methylidene]-2-(5-methoxy-2-methyl-1H-indol-3-yl)acetohydrazide]
- melting point: 213 to 215 °C

Structure (SMILES): COc1ccc2[nH]c(C)c(CC(=O)N/N=C/c3cc(OC)c(OC)cc3OC)c2c1 [Compound S14, 2-(5-methoxy-2-methyl-1H-indol-3-yl)-N′-[(E)-(2,4,5-trimethoxyphenyl)methylidene]acetohydrazide]
- anti-inflammatory activity (in words) [1]: most potent compounds with significant anti-inflammatory activity
- analgesic activity (percentage change in reaction time) [2]: 70.27%
- melting point: 238 to 240 °C
- ulcerogenic activity (in words) (gastric mucosa): less ulcerogenic than the reference drug indomethacin

Structure (SMILES): COc1ccc2[nH]c(C)c(CC(=O)N/N=C/c3ccc(OC)c(OC)c3OC)c2c1 [Compound S15, 2-(5-methoxy-2-methyl-1H-indol-3-yl)-N′-[(E)-(2,3,4-trimethoxyphenyl)methylidene]acetohydrazide]
- melting point: 250 to 252 °C

Structure (SMILES): COc1ccc2[nH]c(C)c(CC(=O)N/N=C/c3cc(OC)c(OC)c(OC)c3)c2c1 [Compound S16, 2-(5-methoxy-2-methyl-1H-indol-3-yl)-N′-[(E)-(3,4,5-trimethoxyphenyl)methylidene]acetohydrazide]
- melting point: 233 to 235 °C

Structure (SMILES): COc1cc(OC)c(/C=N/NC(=O)Cc2c(C)[nH]c3ccc(OC)cc23)c(OC)c1 [Compound S17, 2-(5-methoxy-2-methyl-1H-indol-3-yl)-N′-[(E)-(2,4,6-trimethoxyphenyl)methylidene]acetohydrazide]
- analgesic activity (percentage change in reaction time) [2]: 61.53%
- melting point: 230 to 232 °C

Structure (SMILES): COc1ccc(/C=N/NC(=O)Cc2c(C)[nH]c3ccc(OC)cc23)c(OC)c1 [Compound S18, 2-(5-methoxy-2-methyl-1H-indol-3-yl)-N′-[(E)-(2,4-dimethoxyphenyl)methylidene]acetohydrazide]
- melting point: 170 to 172 °C

Structure (SMILES): COc1ccc2c(c1)c(CC(=O)O)c(C)n2C(=O)c1ccc(Cl)cc1 [indomethacin, reference compound]
- anti-inflammatory activity, % inhibition of paw edema ([1]; after 2 hours): 77.23%
- anti-inflammatory activity, % inhibition of paw edema ([1]; after 4 hours): 76.89%
- histology of gastric tissue (in words) ([4]; ethanol induced ulcer): severe ulceration in comparison with the ethanol induced ulceration
- PAS staining of gastric mucosa (in words) [4, 6]: did not exhibit this magenta staining color of PAS
- Ulcer index Mean ± SEM [4]: 12.34±0.73 mm^2
- Ulcer index Mean ± SEM ([4]; listed as Indomethacin): 12.34 ± 0.73 mm^2
- COX-1 expression / inhibition by Western blot (in words) (COX-1): potent COX-1 inhibitor
